{"source": "patent US20140044709A1", "about": "“TREATMENT OF HER2-POSITIVE CANCER WITH PACLITAXEL AND TRASTUZUMAB-MCC-DM1” (priority 2010, published 2014)", "key": {"[1]": {"system": "patients with cancer", "experiment": "Pertuzumab across all studies, symptomatic cardiac failure", "assay_type": "in vivo, human", "conditions": "4 of 842 patients across all studies", "text": "Two of these patients had MBC and had received prior anthracyclines and two patients had ovarian cancer patients, one of whom had cardiac risk factors (hypertension/hyperlipidemia)."}, "[2]": {"experiment": "Pertuzumab PK studies (Phase Ia and II)", "assay_type": "in vivo, human", "text": "A two-compartment model adequately described the concentration-time data with a terminal half-life of approximately 17 days for a typical patient.\nPopulation PK modeling of data from Phase Ia and II studies supports the continued use of fixed non-weight based dosing in female patients."}, "[3]": {"system": "patients with cancer", "experiment": "Completed Phase Ib combination studies of pertuzumab, LVEF", "assay_type": "in vivo, human", "conditions": "2/35 patients", "text": "Grade 3-4 adverse events have been less frequently reported, with the more frequent events being Grade 3 diarrhea (5%), Grade 3 vomiting (2%), and Grade 3 nausea (<1%). Asymptomatic decreases in LVEF have been reported as adverse events in 14% of patients and were mainly (−70%) Grade 1 events."}, "[4]": {"system": "patients with cancer", "experiment": "Pooled Phase II trials of single-agent pertuzumab, safety", "assay_type": "in vivo, human"}, "[5]": {"system": "patients with HER2-positive MBC", "quoted_text": "Patients with confirmed HER2-positive MBC whose disease had progressed on multiple lines of therapy, including HER2-directed therapy, were eligible.\nPreliminary data in 112 evaluable patients are also available from the Phase II study."}, "[6]": {"system": "patients with HER2-positive MBC", "remark": "listed apart in the source"}, "[7]": {"system": "patients with MBC", "conditions": "single agent, cited from earlier work"}, "[8]": {"conditions": "pooled Phase II single agent (n=353), generally Grade 1-2"}, "[9]": {"conditions": "subgroup with at least 6 months of follow-up or discontinued (n=76)"}}, "note": "Where two headings read alike, the source gives them in different places."}
{"compound": "pertuzumab: humanized monoclonal antibody that binds to extracellular domain II of HER2 and blocks its ability to dimerize with other HER receptors", "values": [{"measurement": "symptomatic cardiac failure events", "setting": "[1]", "value": 0.5, "unit": "%"}, {"measurement": "attaining steady-state trough and peak concentrations", "setting": "[2]; loading dose 840 mg followed by 420 mg every 3 weeks", "value": "by the second cycle"}, {"measurement": "terminal half-life", "setting": "[2]; two-compartment model, typical patient", "value": "approximately 17 days"}, {"measurement": "LVEF declines of ≧10% to <50%", "setting": "[3]", "value": 6, "unit": "%"}, {"measurement": "asymptomatic decreases in LVEF reported as adverse events", "setting": "[4]; % of patients", "value": 14, "unit": "%"}, {"measurement": "LVEF declines of ≧10% to <50%", "setting": "[4]; completed Phase II single-agent studies, 21/302 patients", "value": 7, "unit": "%"}, {"measurement": "Grade 3 diarrhea", "setting": "[4]; pooled Phase II single agent", "value": 5, "unit": "%"}, {"measurement": "Grade 3 nausea", "setting": "[4]; pooled Phase II single agent", "value": "< 1", "unit": "%"}, {"measurement": "Grade 3 vomiting", "setting": "[4]; pooled Phase II single agent", "value": 2, "unit": "%"}, {"measurement": "abdominal pain", "setting": "[4]; [8]", "value": 24, "unit": "%"}, {"measurement": "diarrhea", "setting": "[4]; [8]", "value": 58, "unit": "%"}, {"measurement": "fatigue", "setting": "[4]; [8]", "value": 32, "unit": "%"}, {"measurement": "nausea", "setting": "[4]; [8]", "value": 31, "unit": "%"}, {"measurement": "rash", "setting": "[4]; [8]", "value": 17, "unit": "%"}, {"measurement": "vomiting", "setting": "[4]; [8]", "value": 22, "unit": "%"}, {"measurement": "tolerability", "setting": "[4]; single agent, five Phase II studies", "value": "well tolerated"}]}
{"compound": "T-DM1", "values": [{"measurement": "objective responses confirmed by follow-up imaging", "setting": "[5]; 107 efficacy-evaluable patients, 29 responses", "value": 27.1, "unit": "%"}, {"measurement": "objective responses (CRs and PRs)", "setting": "[5]; 107 efficacy-evaluable patients, 42 responses", "value": 39.3, "unit": "%"}, {"measurement": "response rate", "setting": "[5]; [9]", "value": 43.4, "unit": "%"}, {"measurement": "response rate confirmed by follow-up imaging", "setting": "[5]; [9]", "value": 38.2, "unit": "%"}, {"measurement": "responses", "setting": "[6]; 1.2 mg/kg weekly (n=3)", "value": "three"}, {"measurement": "responses", "setting": "[6]; 1.6 mg/kg weekly (n=3)", "value": "two"}, {"measurement": "responses", "setting": "[6]; 2.0 mg/kg weekly (n=3)", "value": "two"}, {"measurement": "ORR in patients with measurable disease and confirmed HER2 status by central review", "setting": "[6]; every 3-week schedule, 5/11", "value": 46, "unit": "%"}, {"measurement": "6-month clinical benefit rate (CR+PR+SD>6 months)", "setting": "[6]; every 3-week schedule, 13/24", "value": 54, "unit": "%"}, {"measurement": "objective response rate (ORR)", "setting": "[6]; every-3-week schedule, 24 patients", "value": 21, "unit": "%"}, {"measurement": "responses confirmed according to RECIST", "setting": "[6]; every-3-week schedule, of six responses", "value": "five"}, {"measurement": "ORR in patients with measurable disease and confirmed HER2 status by central review", "setting": "[6]; weekly schedule, 7/15", "value": 47, "unit": "%"}, {"measurement": "6-month clinical benefit rate (CR+PR+SD>6 months)", "setting": "[6]; weekly schedule, 18/28", "value": 64, "unit": "%"}, {"measurement": "objective response rate (ORR)", "setting": "[6]; weekly schedule, 28 patients", "value": 54, "unit": "%"}, {"measurement": "responses confirmed according to RECIST", "setting": "[6]; weekly schedule, of 15 responses", "value": 13}]}
{"compound": "CC(=O)O[C@H]1C(=O)[C@@]2(C)[C@H]([C@H](OC(=O)c3ccccc3)[C@]3(O)C[C@H](OC(=O)[C@H](O)[C@@H](NC(=O)c4ccccc4)c4ccccc4)C(C)=C1C3(C)C)[C@]1(OC(C)=O)CO[C@@H]1C[C@@H]2O", "note": "(relative stereo) [paclitaxel, β-(benzoylamino)-α-hydroxy-,6,12b-bis (acetyloxy)-12-(benzoyloxy)-2a,3,4,4a,5,6,9,10,11,12,12a,12b-dodecahydro-4,11-dihydroxy-4a,8,13,13-tetramethyl-5-oxo-7,11-methano-1H-cyclodeca(3,4)benz(1,2-b) oxet-9-ylester,(2aR-(2a-α,4-β,4a-β,6-β,9-α (α-R*,β-S*),11-α,12-α,12a-α,2b-α))-benzenepropanoic acid]", "values": [{"measurement": "response rates", "setting": "[7]; first-line treatment of MBC", "value": "29-63%"}, {"measurement": "response rates", "setting": "[7]; second-line treatment of MBC", "value": "21-56%"}]}
